Data set [1] can be described thus: xn = mol fraction of the nth substance listed. The settings on record: 100 kPa, Liquid, Vibrating tube method, x2 = 0.
Data set [2] in a line: molar heat capacity at constant pressure; xn = mol fraction of the nth substance listed. As to conditions: 100 kPa, Liquid, Large sample (1 g) DSC, x2 = 0.
For data set [3] the following is noted: 100 kPa, Liquid, Vibrating tube method.
A short description of data set [4]: molar heat capacity at constant pressure. The settings on record: 100 kPa, Liquid, Large sample (1 g) DSC.

Numbers after ± are expanded uncertainties.

`CCO` [ethanol] + Cc1ccc(C(C)C)cc1: the mass density – broadly, mass per unit of volume – in data set [1] (298.15 K) amounted to 785.11 ± 0.71 kg/m3; in data set [1] (308.15 K), 776.44 ± 0.71 kg/m3; in data set [1] (318.15 K), 767.62 ± 0.71 kg/m3; in data set [1] (328.15 K), 758.6 ± 0.71 kg/m3. Also, the “molar heat capacity at constant pressure” value worked out at 112 ± 1.8 J/K/mol in data set [2] (298.6 K), 116.4 ± 1.9 J/K/mol in data set [2] (308.5 K), 121 ± 2 J/K/mol in data set [2] (318.5 K) and 125.6 ± 2 J/K/mol in data set [2] (328.4 K).

In the case of `Cc1ccc(C(C)C)cc1` [1-(1-methylethyl)-4-methylbenzene], the mass density in data set [3] (298.15 K) is 852.93 ± 0.71 kg/m3; in data set [3] (308.15 K) it was 844.89 ± 0.71 kg/m3; in data set [3] (318.15 K), 836.81 ± 0.71 kg/m3; in data set [3] (328.15 K) it was 828.69 ± 0.71 kg/m3. The “molar heat capacity at constant pressure” value in data set [4] (298.6 K) turned out to be 240.3 ± 3.9 J/K/mol; in data set [4] (308.5 K) it was 244.7 ± 4 J/K/mol; in data set [4] (318.5 K), 249.4 ± 4.1 J/K/mol; in data set [4] (328.4 K), 254.4 ± 4.1 J/K/mol.

For the compound `CCO` [ethanol], the mass density is reported as 785.11 ± 0.71 kg/m3 in data set [3] (298.15 K), 776.44 ± 0.71 kg/m3 in data set [3] (308.15 K), 767.62 ± 0.71 kg/m3 in data set [3] (318.15 K) and 758.6 ± 0.71 kg/m3 in data set [3] (328.15 K). For the same compound, the “molar heat capacity at constant pressure” value in data set [4] (298.6 K) worked out at 112 ± 1.8 J/K/mol; in data set [4] (308.5 K) it was 116.4 ± 1.9 J/K/mol; in data set [4] (318.5 K) it was 121 ± 2 J/K/mol; in data set [4] (328.4 K), 125.6 ± 2 J/K/mol.
